Test results reported in article PMC5456363 (PLoS ONE, 2017).
Values belong to the compound of their own block, whether it stands above or below them. Non-standard residues stand in square brackets, D forms with d. Residues, ends and D or L forms follow the SMILES beside them.

Columns and labels:
[1] = test system: thrombin; design: method as in PMID 18665823; conditions: recalcified citrated plasma; cited from earlier work
[2] = Peptide stability in fresh blood taken by cardiac puncture into a syringe containing the peptide (blood, B); assay type: in vitro ADME, CD-1 mice; conditions: blood, 1 h
Procedure: (§1) All stability tests were performed at least in triplicates.

[3] = Peptide stability in commercial serum (CS); assay type: in vitro ADME, mouse
Procedure: as §1

[4] = biological target: T1, human α-thrombin (Homo sapiens, UniProt P00734); test: α-Thrombin stability assay; assay type: in vitro ADME; conditions: cleavage C-terminal to Arg4; 0, 1, and 24 hours
T1 construct: with human α-Thrombin for 0, 1, and 24 hours
Procedure: Supplementary file pone.0178943.s003.tif: S3 Fig Stability of Api88, Api137, and LVPR-Onc112 against human α-thrombin. Chromatograms recorded after incubation of Api88 (a), Api137 (b), or LVPR-Onc112 (c) with human α-Thrombin for 0, 1, and 24 hours (UV absorbance). […] (TIF) Click here for additional data file.
S1 Text. Method α-Thrombin stability assay.

[5] = design: method as in PMID 27067364; conditions: 25% aqueous commercial serum; cited from earlier work
[6] = Stability and metabolites across fresh blood, serum and plasma (all six matrices); conditions: for Overall stability / Sequential stability: fresh blood, serum, and plasma
[7] = Peptide stability in direct serum (DS); assay type: in vitro ADME, CD-1 mice; conditions: 37°C, 1 h, 31.5 μmol/L
Procedure: as §1

[8] = Peptide stability in activated serum (AS); assay type: in vitro ADME, CD-1 mice; conditions: 37°C, 1 h, 31.5 μmol/L
Procedure: as §1

[9] = Peptide stability in heparin plasma (HP); assay type: in vitro ADME, CD-1 mouse; conditions: 37°C, 1 h, 31.5 μmol/L
Procedure: as §1

[10] = Peptide stability in EDTA plasma (EP); assay type: in vitro ADME, CD-1 mouse; conditions: 37°C, 1 h, 31.5 μmol/L
Procedure: as §1

[11] = intravenous application in mice; cited from earlier work
[12] = mouse serum; cited from earlier work

Compound: O=C(O)CN(CCN(CC(=O)O)CC(=O)O)CC(=O)O [EDTA, ethylenediaminetetraacetic acid]
thrombin reactivated in presence of the anticoagulant [1]: 0.39 U/mL

remaining at 1 h ([2]; CD-1, mouse, fresh whole blood, 37°C, 31.5 μmol/L, read-out: intact peptide remaining relative to time zero): 67 ± 4%
sum of prodrug and released Onc112 relative to initial amount [2]: 85%
prodrug expected to be present in full serum ([3]; extrapolated from 25% serum data assuming three-fold faster degradation in full serum): 14%
hydrolysis by thrombin compared with Api88 [4]: slower
sum of prodrug and released Onc112 relative to initial amount ([6]; all matrices except for blood, 1 h): ~100%
Overall stability [6]: Low
Sequential stability [6]: Blood > Serum > Plasma
Compound: CC[C@H](C)[C@H](NC(=O)[C@@H](CCCNC(=N)N)NC(=O)[C@H](CCCNC(=N)N)NC(=O)[C@@H]1CCCN1C(=O)[C@@H]1CCCN1C(=O)[C@H](CCCNC(=N)N)NC(=O)[C@@H]1CCCN1C(=O)[C@H](CCCNC(=N)N)NC(=O)[C@@H]1CCCN1C(=O)[C@H](CC(C)C)NC(=O)[C@H](Cc1ccc(O)cc1)NC(=O)[C@@H]1CCCN1C(=O)[C@@H]1CCCN1C(=O)[C@H](CCCCN)NC(=O)[C@H](CC(=O)O)NC(=O)[C@@H](NC(=O)[C@H](CCCNC(=N)N)NC(=O)[C@@H]1CCCN1C(=O)[C@@H](NC(=O)[C@@H](N)CC(C)C)C(C)C)C(C)C)C(=O)N[C@@H](Cc1ccc(O)cc1)C(=O)N[C@@H](CC(N)=O)C(=O)N[C@H](CCCNC(=N)N)C(N)=O [LVPR-Onc112, LVPRVDKPPYLPRPRPPRrIYNr-NH2] (H-LVPRVDKPPYLPRPRPPR[dR]IYN[dR]-NH2)
Onc112 released from linker peptide [5]: 57%

intact peptide remaining relative to time zero ([2]; 37°C, 31.5 μmol/L): at least 96%
intact peptide remaining relative to time zero [7]: at least 96%
intact peptide remaining relative to time zero [8]: at least 96%
metabolised at 1 h, 31.5 μmol/L ([3]; mouse, commercial pooled serum, commercial serum, 1 hour, read-out: peptide degraded): < 2%
intact peptide remaining relative to time zero [9]: at least 96%
intact peptide remaining relative to time zero [10]: at least 96%
Matrix in which the metabolite was identified ([6]; LC-MS, peak area at least 1% of initially incubated peptide, B blood, DS direct serum, AS activated serum, CS commercial serum, EP EDTA plasma, HP heparin plasma, All = all six): All
Overall stability [6]: High
Sequential stability [6]: Blood = Plasma = Serum
Compound: CC[C@H](C)[C@H](NC(=O)[C@@H](CCCNC(=N)N)NC(=O)[C@H](CCCNC(=N)N)NC(=O)[C@@H]1CCCN1C(=O)[C@@H]1CCCN1C(=O)[C@H](CCCNC(=N)N)NC(=O)[C@@H]1CCCN1C(=O)[C@H](CCCNC(=N)N)NC(=O)[C@@H]1CCCN1C(=O)[C@H](CC(C)C)NC(=O)[C@H](Cc1ccc(O)cc1)NC(=O)[C@@H]1CCCN1C(=O)[C@@H]1CCCN1C(=O)[C@H](CCCCN)NC(=O)[C@H](CC(=O)O)NC(=O)[C@@H](N)C(C)C)C(=O)N[C@@H](Cc1ccc(O)cc1)C(=O)N[C@@H](CC(N)=O)C(=O)N[C@H](CCCNC(=N)N)C(N)=O [Onc112, VDKPPYLPRPRPPRrIYNr-NH2] (H-VDKPPYLPRPRPPR[dR]IYN[dR]-NH2)
plasma levels relative to Onc72 [11]: around fivefold
serum half-life time [12]: more than 8 h

Compound: heparin
thrombin reactivated in presence of the anticoagulant [1]: 0.06 U/mL
